Measurements from patent US20240336594A1, “SIX-MEMBERED ARYL OR HETEROARYL AMIDES, AND COMPOSITION AND USE THEREOF” (BETTA PHARMACEUTICALS CO., LTD, priority 2021, published 2024).

Molecular target: T1, MALT1 (Homo sapiens, UniProt Q9UDY8)
T1 sequence (Q9UDY8 1-824): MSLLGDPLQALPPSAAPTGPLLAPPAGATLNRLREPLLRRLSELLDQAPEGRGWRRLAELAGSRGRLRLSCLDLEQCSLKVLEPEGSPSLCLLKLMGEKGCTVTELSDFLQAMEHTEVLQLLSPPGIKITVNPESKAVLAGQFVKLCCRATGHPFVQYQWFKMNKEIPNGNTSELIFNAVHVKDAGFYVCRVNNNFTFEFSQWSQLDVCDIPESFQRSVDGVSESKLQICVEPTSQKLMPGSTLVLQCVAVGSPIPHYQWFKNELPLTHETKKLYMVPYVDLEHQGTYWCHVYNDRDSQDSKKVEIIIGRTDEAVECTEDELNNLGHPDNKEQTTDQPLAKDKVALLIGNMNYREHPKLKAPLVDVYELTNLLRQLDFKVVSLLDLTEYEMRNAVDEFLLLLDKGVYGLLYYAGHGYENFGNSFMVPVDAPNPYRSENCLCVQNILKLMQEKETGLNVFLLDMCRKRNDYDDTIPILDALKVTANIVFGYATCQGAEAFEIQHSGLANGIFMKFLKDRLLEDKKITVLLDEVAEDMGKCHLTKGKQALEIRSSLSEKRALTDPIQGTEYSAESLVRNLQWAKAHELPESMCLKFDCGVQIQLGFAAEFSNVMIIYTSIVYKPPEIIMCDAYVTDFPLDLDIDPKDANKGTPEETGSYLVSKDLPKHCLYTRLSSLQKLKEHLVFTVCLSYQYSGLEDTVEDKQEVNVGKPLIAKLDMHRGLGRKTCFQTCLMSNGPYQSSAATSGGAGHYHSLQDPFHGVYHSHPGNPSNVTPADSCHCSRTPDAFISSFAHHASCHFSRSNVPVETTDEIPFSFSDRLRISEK
Experiment: MALT1 protease inhibition assay (AMC-labeled peptide, fluorescence 360/460)
Format: biochemical
Conditions: substrate Ac-LRSR-AMC, 15 min preincubation, 90 min at 25° C.
Method: Test compounds of the present invention (in 100% DMSO) were spotted into a 384-well dilution plate and serially diluted to the required concentrations with DMSO. Then, 0.2 μL of the test compounds were transferred into a new 384-well reaction plate by Echo following centrifugation. The MALT enzyme and its substrate, AMC-labeled peptide, were prepared in 1× protease buffer to yield 2× enzyme solution and 2× peptide solution. Subsequently, 10 μL of 2× enzyme solution was added into the 384-well reaction plate, incubating with the test compounds for 15 minutes at 25° C. After that, 10 μL of 2× peptide solution was added into the plate, continuing to incubate for 90 minutes at 25° C. The plate was then placed on an Envision multifunctional microplate reader to collect raw data, which would be converted into inhibition rate:
Inhibition rate %=(max−sample)/(max−min)*100%. • “max” values were measured using the reaction with enzyme but no compound treated, while “min” values were generated from control wells containing assay buffer without enzyme.
Curve fitting was done with Graphpad Prism software to determine the IC50 values. The specific experimental operations are as follows:
58.82 g Na Citrate·2H2O powder was added into 140 mL ddH2O and mixed in a 37° C. water bath. Once there were no visible particles, the remaining solutions were added successively with continuous stirring for 10 minutes. The final volume was adjusted to 200 mL. The buffer was stored at room temperature. DTT was added before use.
• 1) All test compounds were diluted from 10 mM stock solution into 1 mM in a 384 well dilution plate (labcyte, PP-0200); • 2) Ten various concentrations of the diluted compound solution above were obtained by serial dilution at an equal ratio of 1:3; • 3) 0.2 μL DMSO was transferred to two empty wells of the 384 reaction plate as blank controls without compound and enzyme respectively; • 4) 0.2 μL of the test compound at different concentrations was also transferred into the 384 reaction plate by Echo, with two duplicate wells for each concentration, then the plate was centrifuged at 1000 rpm for 1 min.
• 1) The MALT1 protease and AMC-labeled peptide was prepared in 1× protease buffer to obtain 2× enzyme solution and 2× peptide solution. 10 μL of 2× enzyme solution was added into the 384-well reaction plate. The plate was centrifuged at 1000 rpm for 1 min and incubated for 15 min at 25° C. • 2) 10 μL of 2× peptide solution was then transferred to the 384 reaction plate, and the plate was centrifuged at 1000 rpm for 1 min and incubate for 90 min at 25° C.

| Compound | IC50 |
| --- | --- |
| Cc1nnc(CNC(=O)c2ncc(NC(=O)c3cc(F)c(-c4ccc(F)cc4N)cc3Cl)cc2Cl)o1 [Example A462, 5-(2′-amino-5-chloro-2,4′-difluoro-[1,1′-biphenyl]-4-carboxamido)-3-chloro-N-((5-methyl-1,3,4-oxadiazol-2-yl)methyl)picolinamide] | 10 to 100 nM |
| Nc1cc(F)ccc1-c1cc(Cl)c(C(=O)Nc2cnc(C(=O)NCc3nc[nH]n3)c(Cl)c2)cc1F [Example A463, N-((1H-1,2,4-triazol-3-yl)methyl)-5-(2′-amino-5-chloro-2,4′-difluoro-[1,1′-biphenyl]-4-carboxamido)-3-chloropicolinamide] | 10 to 100 nM |
| CCSCCNC(=O)c1ncc(NC(=O)c2cc(F)c(-c3ccc(F)cc3N)cc2Cl)cc1Cl [Example A464, 5-(2′-amino-5-chloro-2,4′-difluoro-[1,1′-biphenyl]-4-carboxamido)-3-chloro-N-(2-(ethylthio)ethyl) picolinamide] | 10 to 100 nM |
| NC(=O)CNC(=O)c1ncc(NC(=O)c2cc(F)c(-c3ccc(F)cc3N)cc2Cl)cc1Cl [Example A465, N-(2-amino-2-oxoethyl)-5-(2′-amino-5-chloro-2,4′-difluoro-[1,1′-biphenyl]-4-carboxamido)-3-chloropicolinamide] | 10 to 100 nM |
| N#CC1(CNC(=O)c2ncc(NC(=O)c3cc(F)c(-c4ccc(F)cc4N)cc3Cl)cc2Cl)CC1 [Example A466, 5-(2′-amino-5-chloro-2,4′-difluoro-[1,1′-biphenyl]-4-carboxamido)-3-chloro-N-((1-cyanocyclopropyl)methyl)picolinamide] | 10 to 100 nM |
| Nc1cc(F)ccc1-c1cc(Cl)c(C(=O)Nc2cnc(C(=O)NCC(F)(F)C(F)(F)F)c(Cl)c2)cc1F [Example A467, 5-(2′-amino-5-chloro-2,4′-difluoro-[1,1′-biphenyl]-4-carboxamido)-3-chloro-N-(2,2,3,3,3-pentafluoropropyl) picolinamide] | 100 to 500 nM |
| Nc1cc(F)ccc1-c1cc(Cl)c(C(=O)Nc2cnc(C(=O)NCC3(C(F)(F)F)CC3)c(Cl)c2)cc1F [Example A468, 5-(2′-amino-5-chloro-2,4′-difluoro-[1,1′-biphenyl]-4-carboxamido)-3-chloro-N-((1-(trifluoromethyl)cyclopropyl)methyl) picolinamide] | 100 to 500 nM |
| CS(=O)(=O)CCNC(=O)c1ncc(NC(=O)c2cc(F)c(-c3ccc(F)cc3N)cc2Cl)cc1Cl [Example A469, 5-(2′-amino-5-chloro-2,4′-difluoro-[1,1′-biphenyl]-4-carboxamido)-3-chloro-N-(2-(methylsulfonyl)ethyl) picolinamide] | 10 to 100 nM |
| C#Cc1cncc(N)c1-c1cc(Cl)c(C(=O)Nc2cnc(C(=O)NCC(F)F)c(Cl)c2)cc1F [Example A471, 5-(4-(3-amino-5-ethynylpyridin-4-yl)-2-chloro-5-fluorobenzamido)-3-chloro-N-(2,2-difluoroethyl)picolinamide] | ≤ 10 nM |
| C#Cc1cncc(N)c1-c1cc(Cl)c(C(=O)Nc2cnc(C(=O)NCCF)c(Cl)c2)cc1F [Example A472, 5-(4-(3-amino-5-ethynylpyridin-4-yl)-2-chloro-5-fluorobenzamido)-3-chloro-N-(2-fluoroethyl)picolinamide] | ≤ 10 nM |
| Nc1cncc(C2CC2)c1-c1cc(Cl)c(C(=O)Nc2cnc(-n3nccn3)c(C(F)(F)F)c2)cc1F [Example A475, N-(6-(2H-1,2,3-triazol-2-yl)-5-(trifluoromethyl)pyridin-3-yl)-4-(3-amino-5-cyclopropylpyridin-4-yl)-2-chloro-5-fluorobenzamide] | ≤ 10 nM |
| C#Cc1cncc(N)c1-c1cc(Cl)c(C(=O)Nc2cnc(C(=O)NCC(C)(C)C)c(Cl)c2)cc1F [Example A478, 5-(4-(3-amino-5-ethynylpyridin-4-yl)-2-chloro-5-fluorobenzamido)-3-chloro-N-neopentylpicolinamide] | ≤ 10 nM |
| C#Cc1cncc(N)c1-c1cc(Cl)c(C(=O)Nc2cnc(C(=O)NCC)c(Cl)c2)cc1F [Example A479, 5-(4-(3-amino-5-ethynylpyridin-4-yl)-2-chloro-5-fluorobenzamido)-3-chloro-N-ethylpicolinamide] | ≤ 10 nM |
| C#Cc1cnc(F)c(N)c1-c1cc(Cl)c(C(=O)Nc2cnc(-n3nccn3)c(Cl)c2)cc1F [Example A485, 4-(3-amino-5-ethynyl-2-fluoropyridin-4-yl)-2-chloro-N-(5-chloro-6-(2H-1,2,3-triazol-2-yl)pyridin-3-yl)-5-fluorobenzamide] | ≤ 10 nM |
| C#Cc1c(F)ncc(N)c1-c1cc(Cl)c(C(=O)Nc2cnc(-n3nccn3)c(Cl)c2)cc1F [Example A486, 4-(5-amino-3-ethynyl-2-fluoropyridin-4-yl)-2-chloro-N-(5-chloro-6-(2H-1,2,3-triazol-2-yl)pyridin-3-yl)-5-fluorobenzamide] | ≤ 10 nM |
| C=C(C)c1cncc(N)c1-c1cc(Cl)c(C(=O)Nc2cnc(-n3nccn3)c(Cl)c2)cc1F [Example A504, 4-(3-amino-5-(prop-1-en-2-yl)pyridin-4-yl)-2-chloro-N-(5-chloro-6-(2H-1,2,3-triazol-2-yl)pyridin-3-yl)-5-fluorobenzamide] | ≤ 10 nM |
| C=Cc1cncc(N)c1-c1cc(Cl)c(C(=O)Nc2cnc(-n3nccn3)c(Cl)c2)cc1F [Example A507, 4-(3-amino-5-vinylpyridin-4-yl)-2-chloro-N-(5-chloro-6-(2H-1,2,3-triazol-2-yl)pyridin-3-yl)-5-fluorobenzamide] | ≤ 10 nM |
| Nc1cncc(Br)c1-c1cc(Cl)c(C(=O)Nc2cnc(-n3nccn3)c(C(F)(F)F)c2)cc1F [Example A517, N-(6-(2H-1,2,3-triazol-2-yl)-5-(trifluoromethyl)pyridin-3-yl)-4-(3-amino-5-bromopyridin-4-yl)-2-chloro-5-fluorobenzamide] | ≤ 10 nM |
| C#Cc1cncc(N)c1-c1cc(Cl)c(C(=O)Nc2ccnc(C(F)(F)F)c2)cc1F [Example A518, 4-(3-amino-5-ethynylpyridin-4-yl)-2-chloro-5-fluoro-N-(2-(trifluoromethyl)pyridin-4-yl)benzamide] | ≤ 10 nM |
| Nc1cnc(F)c(Br)c1-c1cc(Cl)c(C(=O)Nc2cnc(-n3nccn3)c(C(F)(F)F)c2)cc1F [Example A521, N-(6-(2H-1,2,3-triazol-2-yl)-5-(trifluoromethyl)pyridin-3-yl)-4-(5-amino-3-bromo-2-fluoropyridin-4-yl)-2-chloro-5-fluorobenzamide] | ≤ 10 nM |
| C#Cc1cnc(C)c(N)c1-c1cc(Cl)c(C(=O)Nc2cnc(-n3nccn3)c(C(F)(F)F)c2)cc1F [Example A551, N-(6-(2H-1,2,3-triazol-2-yl)-5-(trifluoromethyl)pyridin-3-yl)-4-(3-amino-5-ethynyl-2-methylpyridin-4-yl)-2-chloro-5-fluorobenzamide] | ≤ 10 nM |
| C#Cc1cnc(F)c(N)c1-c1cc(Cl)c(C(=O)Nc2cnc(-n3nccn3)c(C(F)(F)F)c2)cc1F [Example A552, N-(6-(2H-1,2,3-triazol-2-yl)-5-(trifluoromethyl)pyridin-3-yl)-4-(3-amino-5-ethynyl-2-fluoropyridin-4-yl)-2-chloro-5-fluorobenzamide] | ≤ 10 nM |
| C#Cc1cnc(Cl)c(N)c1-c1cc(Cl)c(C(=O)Nc2cnc(-n3nccn3)c(C(F)(F)F)c2)cc1F [Example A553] | ≤ 10 nM |
